Consider 25 compounds from US10081634B2, “Heterocyclic compound” (Daewoong Pharmaceutical Co., Ltd., priority 2014, dated 2018).

For one assay, the system named is NCI-H460 cells. Nature of the assay: Cancer cell growth inhibition experiment (MTT assay). Format: cell-based. The note with it: Homo sapiens; NCI-H460 lung cancer cell line; 48 hours treatment; MTT cell viability. The method, then: NCI-H460 cells, lung cancer cell lines, were cultured in 5% CO2, 37° C. incubator using a flask for 75 cm^2 tissue culture. 96-well plates were used for the evaluation. These were prepared by differently applying at concentrations in the range of 6,000 to 12,000 cells/well according to the growth rate of the cell lines. The medium containing 5% FBS were dispensed in 200 μL/well and used. The medium were cultured for 24 hours. After confirming the cell status and dispensing form of a 96-well plate under a microscope, they were used for subsequent experiments. The compounds were evaluated at concentrations of 100, 30, 10, 3, 1, 0.3, 0.03, 0.01 μM. After removing the existing medium, the compounds with various concentrations were treated in an amount of 200 μL/well. The compounds-treated plates were further cultured for 48 hours, and the cell viabilities were measured by MTT assay to calculate IC50 values.
% Inhibition and IC50 values of the respective compounds were calculated and analyzed using Sigma Plot 8.0. The case where the derived IC50 is 5 μM or less is represented by “A”, the case where the IC50 is 5 to 30 μM is represented by “B”, and the case where the IC50 is 30 μM or higher is represented by “C”.
Background: Tetrazolium assays rely on reduction of a dye to a coloured formazan, in cell work by metabolically active cells.

The target of assay [1] is T1, PRS (prolyl-tRNA synthetase) (Homo sapiens, UniProt P07814).
T1 construct: the portion corresponding to PRS in cDNA of EPRS was subcloned; made in house
T1 sequence (P07814 1007-1512 limits assumed): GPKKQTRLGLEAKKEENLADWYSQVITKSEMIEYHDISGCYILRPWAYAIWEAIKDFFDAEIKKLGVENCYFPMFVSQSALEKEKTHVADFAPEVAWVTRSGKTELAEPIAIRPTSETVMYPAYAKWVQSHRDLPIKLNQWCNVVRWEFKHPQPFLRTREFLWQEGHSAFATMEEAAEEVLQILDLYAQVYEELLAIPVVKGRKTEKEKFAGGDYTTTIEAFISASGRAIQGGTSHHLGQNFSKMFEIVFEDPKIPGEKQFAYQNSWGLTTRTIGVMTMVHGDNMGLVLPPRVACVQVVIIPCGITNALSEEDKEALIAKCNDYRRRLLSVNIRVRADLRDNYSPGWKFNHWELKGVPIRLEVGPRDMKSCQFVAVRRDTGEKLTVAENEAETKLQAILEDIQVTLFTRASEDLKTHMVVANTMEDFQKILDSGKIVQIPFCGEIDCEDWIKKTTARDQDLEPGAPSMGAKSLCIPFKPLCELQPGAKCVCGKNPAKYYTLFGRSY
Nature of the assay: In vitro PRS enzyme activity inhibition experiment ([3H]proline, liquid scintillation). Format: biochemical. The conditions noted are these: purified PRS protein subcloned from EPRS cDNA; 37° C., 5 to 10 minutes; read-out: PRS IC50. The method, then: In order to confirm the biological activities of the compounds prepared in Examples, % inhibition or IC50 values of PRS enzyme ([…]) activities were calculated.
Specifically, the portion corresponding to PRS in cDNA of EPRS was subcloned, and the obtained high-purity PRS protein was purified and used in the experiment. The compounds (1 μM) prepared in Examples were added into the reaction buffer (20 mM KPO4 (pH 7.4), 6 mM MgAc, 5 mM ATP, […] tRNA, 0.5 mM DTT, 20 mCi[^3H]proline (1 mCi/mL)) and allowed to react at 37° C. for 5 to 10 minutes. The reaction was terminated with 3M paper that was previously dried by addition of 5% TCA. The radioactivity was measured using a liquid scintillation counter.
IC50 values of the respective compounds were calculated and analyzed using Microsoft Excel or Sigma Plot 8.0. In Table 1, the results are divided into A, B and C according to the range of IC50. The case where the derived IC50 is 100 nM or less is represented by “A”, the case where the IC50 is 100 to 500 nM is represented by “B”, and the case where the IC50 is 500 nM or higher is represented by “C”.

A value given as a limit tells only on which side of the number the result lay.

`O=C(C[C@H]1NCCC[C@@H]1O)Cn1ccc2ccc(Br)nc21` [Example 92, 1-(6-bromo-1H-pyrrolo[2,3-b]pyridin-1-yl)-3-((2R,3S)-3-hydroxypiperidin-2-yl)propan-2-one]: the IC50 in the assay on NCI-H460 cells was at least 30 µM; in assay [1], over 500 nM.
In the same order, the values of `Cc1c(Br)cnc2c1ncn2CC(=O)C[C@H]1NCCC[C@@H]1O` [Example 40, 1-(6-bromo-7-methyl-3H-imidazo[4,5-b]pyridin-3-yl)-3-((2R,3S)-3-hydroxypiperidin-2-yl)propan-2-one] are at most 5 µM and under 100 nM.
In the case of `Cc1ccc2c(ncn2CC(=O)C[C@H]2NCCC[C@@H]2O)c1C` [Example 16, 1-(4,5-dimethyl-1H-benzo[d]imidazol-1-yl)-3-((2R,3S)-3-hydroxypiperidin-2-yl)propan-2-one], the IC50 in the assay with NCI-H460 cells is 5 to 30 µM; in assay [1] it was under 100 nM.
For `Cc1ccc2c(nc(CO)n2CC(=O)C[C@H]2NCCC[C@@H]2O)c1C` [Example 62, 1-(2-(hydroxymethyl)-4,5-dimethyl-1H-benzo[d]imidazol-1-yl)-3-((2R,3S)-3-hydroxypiperidin-2-yl)propan-2-one], in that order: at least 30 µM and over 500 nM.
Regarding `O=C(C[C@H]1NCCC[C@@H]1O)Cn1cnc2cc(Br)cnc21` [Example 37, 1-(6-bromo-3H-imidazo[4,5-b]pyridin-3-yl)-3-((2R,3S)-3-hydroxypiperidin-2-yl)propan-2-one], the IC50 in the assay with NCI-H460 cells was at most 5 µM; in assay [1], under 100 nM.
Consider `COC(C[C@H]1NCCC[C@@H]1O)Cn1cnc2cc(Cl)c(Cl)cc21` (stereo partly drawn) [Example 83, (2R,3S)-2-(3-(5,6-dichloro-1H-benzo[d]imidazol-1-yl)-2-methoxypropyl)piperidin-3-ol], for which the IC50 in the assay on NCI-H460 cells was at least 30 µM; in assay [1] it was over 500 nM.
In the case of `Cc1ccc2c(ncn2CC(=O)C[C@H]2NCCC[C@@H]2O)c1Br` [Example 19, 1-(4-bromo-5-methyl-1H-benzo[d]imidazol-1-yl)-3-((2R,3S)-3-hydroxypiperidin-2-yl)propan-2-one], the IC50 in the assay on NCI-H460 cells is 5 to 30 µM; in assay [1], under 100 nM.
Take `O=C(C[C@H]1NCCC[C@@H]1O)Cn1cnc2cc(Cl)ccc21` [Example 2, 1-(5-chloro-1H-benzo[d]imidazol-1-yl)-3-((2R,3S)-3-hydroxypiperidin-2-yl)propan-2-one]: the IC50 was 5 to 30 µM with NCI-H460 cells and under 100 nM in assay [1].
In the same order, the values of `Cc1c(Cl)ccc2ncn(CC(=O)C[C@H]3NCCC[C@@H]3O)c12` [Example 28, 1-(6-chloro-7-methyl-1H-benzo[d]imidazol-1-yl)-3-((2R,3S)-3-hydroxypiperidin-2-yl)propan-2-one] are at least 30 µM and under 100 nM.
On to `OC(C[C@H]1NCCC[C@@H]1O)Cn1cnc2ccccc21` (stereo partly drawn) [Example 69, (2R,3S)-2-(3-(1H-benzo[d]imidazol-1-yl)-2-hydroxypropyl)piperidin-3-ol], for which the IC50 in the assay with NCI-H460 cells is at least 30 µM; in assay [1], over 500 nM.
Regarding `O=C(C[C@H]1NCCC[C@@H]1O)Cn1cnc2cnc(Cl)cc21` [Example 32, 1-(6-chloro-1H-imidazo[4,5-c]pyridin-1-yl)-3-((2R,3S)-3-hydroxypiperidin-2-yl)propan-2-one], the half-maximal inhibitory concentration (IC50) in the assay with NCI-H460 cells was at least 30 µM; in assay [1], 100 to 500 nM.
For `O=C(C[C@H]1NCCC[C@@H]1O)Cn1cnc2cc(Cl)c(Cl)cc21` [Example 25, 1-(5,6-dichloro-1H-benzo[d]imidazol-1-yl)-3-((2R,3S)-3-hydroxypiperidin-2-yl)propan-2-one], the 50% inhibitory concentration (IC50) in the assay on NCI-H460 cells was at most 5 µM; in assay [1], under 100 nM.
In the same order, the values of `O=C(C[C@H]1NCCC[C@@H]1O)Cn1cnc2ccc(Br)cc21` [Example 5, 1-(6-bromo-1H-benzo[d]imidazol-1-yl)-3-((2R,3S)-3-hydroxypiperidin-2-yl)propan-2-one] are 5 to 30 µM and under 100 nM.
For `O=C(C[C@H]1NCCC[C@@H]1O)Cn1cnc2ccc(Cl)cc21` [Example 3, 1-(6-chloro-1H-benzo[d]imidazol-1-yl)-3-((2R,3S)-3-hydroxypiperidin-2-yl)propan-2-one], in that order: 5 to 30 µM and under 100 nM.
For `O=C(C[C@H]1NCCC[C@@H]1O)Cn1c(CO)nc2ccc(Br)cc21` [Example 58, 1-(6-bromo-2-(hydroxymethyl)-1H-benzo[d]imidazol-1-yl)-3-((2R,3S)-3-hydroxypiperidin-2-yl)propan-2-one], the results for the half-maximal inhibitory concentration (IC50) (with NCI-H460 cells; in assay [1]) were 5 to 30 µM and under 100 nM, respectively.
Consider `O=C(C[C@H]1NCCC[C@@H]1O)Cn1cnc2cc(F)c(Br)cc21` [Example 26, 1-(6-bromo-5-fluoro-1H-benzo[d]imidazol-1-yl)-3-((2R,3S)-3-hydroxypiperidin-2-yl)propan-2-one], for which the figures for the half-inhibitory concentration (IC50) (in the assay on NCI-H460 cells; in assay [1]) were at most 5 µM and under 100 nM, respectively.
Regarding `OCc1nc2cc(Cl)c(Cl)cc2n1CC(O)C[C@H]1NCCC[C@@H]1O` (stereo partly drawn) [Example 88, (2R,3S)-2-(3-(5,6-dichloro-2-(hydroxymethyl)-1H-benzo[d]imidazol-1-yl)-2-hydroxypropyl)piperidin-3-ol], the figures for the IC50 (with NCI-H460 cells; in assay [1]) were at least 30 µM and 100 to 500 nM, respectively.
Regarding `O=C(C[C@H]1NCCC[C@@H]1O)Cn1c(CO)nc2cc(Br)ccc21` [Example 57, 1-(5-bromo-2-(hydroxymethyl)-1H-benzo[d]imidazol-1-yl)-3-((2R,3S)-3-hydroxypiperidin-2-yl)propan-2-one], the concentration for half-maximal inhibition (IC50) fell in the range of 5 to 30 µM in the assay with NCI-H460 cells and 100 to 500 nM in assay [1].
For `NCc1nc2cc(Cl)c(Cl)cc2n1CC(=O)C[C@H]1NCCC[C@@H]1O` [Example 52, 1-(2-(aminomethyl)-5,6-dichloro-1H-benzo[d]imidazol-1-yl)-3-((2R,3S)-3-hydroxypiperidin-2-yl)propan-2-one], in that order: at least 30 µM and over 500 nM.
For `O=C(C[C@H]1NCCC[C@@H]1O)Cn1cnc2cc(Br)c(Br)cc21` [Example 27, 1-(5,6-dibromo-1H-benzo[d]imidazol-1-yl)-3-((2R,3S)-3-hydroxypiperidin-2-yl)propan-2-one], in that order: 5 to 30 µM and under 100 nM.
For `Cc1c(Br)ccc2c1ncn2CC(=O)C[C@H]1NCCC[C@@H]1O` [Example 15, 1-(5-bromo-4-methyl-1H-benzo[d]imidazol-1-yl)-3-((2R,3S)-3-hydroxypiperidin-2-yl)propan-2-one], in that order: at most 5 µM and under 100 nM.
`OC(C[C@H]1NCCC[C@@H]1O)Cn1cnc2c(Cl)c(Br)ccc21` (stereo partly drawn) [Example 71, (2R,3S)-2-(3-(5-bromo-4-chloro-1H-benzo[d]imidazol-1-yl)-2-hydroxypropyl)piperidin-3-ol]: the 50% inhibitory concentration (IC50) with NCI-H460 cells is 5 to 30 µM; in assay [1], under 100 nM.
For `O=C(C[C@H]1NCCC[C@@H]1O)Cn1cnc2ccc(Br)nc21` [Example 35, 1-(5-bromo-3H-imidazo[4,5-b]pyridin-3-yl)-3-((2R,3S)-3-hydroxypiperidin-2-yl)propan-2-one], the half-inhibitory concentration (IC50) in the assay with NCI-H460 cells was 5 to 30 µM; in assay [1], under 100 nM.
For the compound `O=C(C[C@H]1NCCC[C@@H]1O)Cn1c(CO)nc2cccc(OC(F)(F)F)c21` [Example 61, 1-(2-(hydroxymethyl)-7-(trifluoromethoxy)-1H-benzo[d]imidazol-1-yl)-3-((2R,3S)-3-hydroxypiperidin-2-yl)propan-2-one], the half-maximal inhibitory concentration (IC50) with NCI-H460 cells is at least 30 µM; in assay [1], over 500 nM.
Take `Cc1c(Br)ccc2c1ncn2CC(O)C[C@H]1NCCC[C@@H]1O` (stereo partly drawn) [Example 89, (2R,3S)-2-(3-(5-bromo-4-methyl-1H-benzo[d]imidazol-1-yl)-2-hydroxypropyl)piperidin-3-ol]: the 50% inhibitory concentration (IC50) in the assay with NCI-H460 cells was at least 30 µM; in assay [1] it was under 100 nM.

The term IC50 denotes the concentration that gives 50% inhibition.
